Laboratory results from PubChem BioAssay (NCI).
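Values below derive from 48-hour exposures of cells grown in 96-well plates, with endpoints linearly interpolated between the two concentrations bracketing the appropriate inhibition level. GI50 = concentration required for 50% inhibition of growth. TGI is the concentration that stops growth completely.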

Assays:
Test in all cases: NCI tumour cell line growth inhibition, 48 h
CAKI-1 renal = test system: CAKI-1 renal
NCI-H522 lung = test system: NCI-H522 lung
HCT-116 colon = test system: HCT-116 colon
MALME-3M melanoma = test system: MALME-3M melanoma
SNB-75 CNS = test system: SNB-75 CNS
NCI-H23 lung = test system: NCI-H23 lung
SF-539 CNS = test system: SF-539 CNS
RXF 393 renal = test system: RXF 393 renal
HL-60(TB) leukemia = test system: HL-60(TB) leukemia
A498 renal = test system: A498 renal

| Structure (SMILES) | GI50 (CAKI-1 renal) [µM] | TGI (CAKI-1 renal) [µM] | GI50 (NCI-H522 lung) [µM] | TGI (NCI-H522 lung) [µM] | GI50 (HCT-116 colon) [µM] | TGI (HCT-116 colon) [µM] | GI50 (MALME-3M melanoma) [µM] | TGI (MALME-3M melanoma) [µM] | GI50 (SNB-75 CNS) [µM] | TGI (SNB-75 CNS) [µM] | GI50 (NCI-H23 lung) [µM] | TGI (NCI-H23 lung) [µM] | GI50 (SF-539 CNS) [µM] | TGI (SF-539 CNS) [µM] | GI50 (RXF 393 renal) [µM] | TGI (RXF 393 renal) [µM] | GI50 (HL-60(TB) leukemia) [µM] | TGI (HL-60(TB) leukemia) [µM] | TGI (A498 renal) [µM] | GI50 (A498 renal) [µM] |
| --- | --- | --- | --- | --- | --- | --- | --- | --- | --- | --- | --- | --- | --- | --- | --- | --- | --- | --- | --- | --- |
| CCCCC/C=C\C/C=C/CCCCCCCCNC(=O)Nc1ccc([N+](=O)[O-])cc1 | 5.9 | > 100 | 11.5 | > 100 | 4.17 | 35.6 | 25.2 | 84.4 | 22.9 | > 100 | 5.19 | 72 | 41.4 | > 100 | 24.1 | 73.8 | 19.9 | 47.5 | – | – |
| CCOC(=O)/C(=C/c1ccc(Cl)cc1)N(CC)CC | – | > 100 | – | > 100 | – | > 100 | – | > 100 | – | > 100 | – | > 100 | – | > 100 | – | – | – | > 100 | > 100 | – |
| O=C(NCc1cccs1)OC1CC2CCC1C2 (stereo unspecified) | – | > 100 | – | > 100 | – | > 100 | – | > 100 | – | – | – | > 100 | – | > 100 | – | > 100 | – | > 100 | > 100 | – |
| COc1cccc(N2C(=O)[C@H]3[C@H]4CC(C(C)(C)C)CC[C@H]4c4c([nH]c5ccccc45)[C@H]3C2=O)c1 (stereo partly specified) | – | 32.3 | – | 45.7 | – | – | – | 47.4 | – | 30.1 | – | 40.9 | – | 42.1 | – | 42 | – | > 100 | – | – |
| Cc1[nH]c2ccccc2c1C1=CC(=O)C=CC1=O | 5.66 | 22.6 | 1.66 | 3.28 | 10.5 | 24.8 | 7.45 | 27.8 | 9.19 | 34.7 | 13 | 31.5 | 14.3 | 28.3 | 10.6 | 22.9 | – | – | 40 | 14.5 |
| CN1CCN(CCCOc2ccc3nc(Nc4ccc(C(F)(F)F)c(Cl)c4)ccc3c2)CC1 | 1.72 | 3.82 | 2.02 | 3.74 | 1.46 | 2.94 | – | – | 0.903 | 2.94 | 1.47 | 3 | – | – | 1.42 | 3.03 | 1.94 | 4.01 | 2.54 | 0.932 |
| Cc1cccc2c1ccc1c3occ(C)c3c(=O)oc21 | > 100 | > 100 | > 100 | > 100 | > 100 | > 100 | > 100 | > 100 | 45.7 | > 100 | > 100 | > 100 | – | – | – | – | – | – | – | – |
| Cc1nn(-c2ccccc2)c(C)c1/C=N/N1CCN(Cc2ccccc2)CC1 | > 100 | > 100 | 78.5 | > 100 | 28 | > 100 | – | – | 99 | > 100 | 41.7 | > 100 | 76.4 | > 100 | > 100 | > 100 | 28.7 | 63 | – | – |
